# Active and inactive are the calls of the source.
# Key:
# [1] = biological target: Protein-tyrosine kinase 2-beta (Homo sapiens, UniProt Q14289);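 note: potency of inhibitors of PYK2 kinase phosphorylation of poly-GT substrate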
# Estrogen receptor = biological target: T1, Estrogen receptor (Homo sapiens, UniProt P03372); test: potentiators of ERα–SRC-1 coactivator binding, dose response, biochemical, TR-FRET, ERα LBD (AID 737)
# T1 sequence (P03372 whole entry): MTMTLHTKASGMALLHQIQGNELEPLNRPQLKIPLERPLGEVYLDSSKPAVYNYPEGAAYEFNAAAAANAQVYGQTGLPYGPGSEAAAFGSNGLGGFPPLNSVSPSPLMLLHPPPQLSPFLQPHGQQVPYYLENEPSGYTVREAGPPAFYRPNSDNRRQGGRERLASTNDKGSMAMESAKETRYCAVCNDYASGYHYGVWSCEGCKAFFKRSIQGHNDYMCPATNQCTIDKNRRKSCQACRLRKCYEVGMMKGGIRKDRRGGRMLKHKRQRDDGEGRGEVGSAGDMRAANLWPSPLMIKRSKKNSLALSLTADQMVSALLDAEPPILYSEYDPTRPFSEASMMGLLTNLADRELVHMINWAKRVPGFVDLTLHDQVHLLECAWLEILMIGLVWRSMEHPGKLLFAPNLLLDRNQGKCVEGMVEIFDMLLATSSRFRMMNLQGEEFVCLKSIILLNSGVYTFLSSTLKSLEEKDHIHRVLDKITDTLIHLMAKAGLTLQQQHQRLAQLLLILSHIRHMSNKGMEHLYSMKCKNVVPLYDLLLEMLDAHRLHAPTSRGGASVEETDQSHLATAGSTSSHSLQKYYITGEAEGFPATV
# [2] = biological target: Epstein-Barr nuclear antigen 1 (Epstein-Barr virus (strain B95-8) (HHV-4) (Human herpesvirus 4), UniProt P03211); test: EBNA-1 inhibitors, dose response, biochemical, fluorescence polarization, 1536-well (AID 2381); design: species or system human gammaherpesvirus 4;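 note: fluorescence polarization of a Cy5 DNA probe bound by EBNA-1 protein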
# [3] = biological target: Lytic switch protein BZLF1 (Epstein-Barr virus (strain B95-8) (HHV-4) (Human herpesvirus 4), UniProt P03206); test: EBV ZTA inhibitors, dose response, counter-screen for EBNA-1 inhibitor project, biochemical, fluorescence polarization, Epstein-Barr virus, 1536-well (AID 2377); design: species or system human gammaherpesvirus 4;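 note: fluorescence polarization of Cy5-labelled ZRE DNA probe bound by purified Zta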
# HeLa = test: Cytotoxicity counterscreen assay for transcriptional activators of heat shock protein 70 (Hsp70). [Related pubchem assays: 1203, 1252 ]; type: functional; conditions: Homo sapiens;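 note: cells exposed to compound for 16 hours before readout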
# [4] = biological target: DNA dC->dU-editing enzyme APOBEC-3A (Homo sapiens, UniProt P31941); test: Dose Response confirmation of small molecule APOBEC3A DNA Deaminase Inhibitors via a fluorescence-based single-stranded DNA deaminase assay. [Related pubchem assays (depositor defined):AID493011, AID493024]; type: functional
# [5] = biological target: DNA dC->dU-editing enzyme APOBEC-3G (Homo sapiens, UniProt Q9HC16); type: functional;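 note: Dose-response counterscreen measuring inhibition of APOBEC3G DNA deaminase activity, run while confirming APOBEC3A inhibitors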
# [6] = NIH-3T3 fibroblast cytotoxicity, dose response, cytotoxicity control, cell-based, fluorescence, Alamar Blue, secondary assay (AID 2327); type: functional;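 note: NIH-3T3 mouse fibroblasts cultured with fluconazole at 8 µg/mL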
# [7] = C. albicans growth with fluconazole, confirmation, fluorescence, retest (AID 2467); type: functional, cell-based
# [8] = cytotoxicity in HPDE-C7 cells, cell-based, fluorescence, HTS (AID 430); type: functional; conditions: Homo sapiens
# [9] = cytotoxicity in KRAS-transformed pancreatic duct cells, primary screen, cell-based, fluorescence, HTS (AID 431); type: functional; conditions: Homo sapiens;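 note: cell line used: HPDE-C7K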
# [10] = growth suppression of PTEN-null colon cells, dose response, cell-based, HCT116 PTEN knockout (AID 1047); type: functional;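 note: HCT116 colon tumor cells with PTEN knocked out; cells exposed to compound for 60 hours before readout; potency for loss of cell viability measured by luminescence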
# [11] = biological target: T2, Sphingosine 1-phosphate receptor 4 (Homo sapiens, UniProt O95977); test: Late stage fluorescence dose response cell-based screening assay for antagonists of the Sphingosine 1-Phosphate Receptor 4 (S1P4). [Related pubchem assays: 1524 (Confirmation screen (S1P4 antagonists).), 1510 (Primary screen (S1P4 antagonists).), 1853 (Summary AID (S1P4 antagonists).), 1692 (Dose response screen (S1P4 antagonists).)]; type: functional
# T2 sequence (O95977 whole entry): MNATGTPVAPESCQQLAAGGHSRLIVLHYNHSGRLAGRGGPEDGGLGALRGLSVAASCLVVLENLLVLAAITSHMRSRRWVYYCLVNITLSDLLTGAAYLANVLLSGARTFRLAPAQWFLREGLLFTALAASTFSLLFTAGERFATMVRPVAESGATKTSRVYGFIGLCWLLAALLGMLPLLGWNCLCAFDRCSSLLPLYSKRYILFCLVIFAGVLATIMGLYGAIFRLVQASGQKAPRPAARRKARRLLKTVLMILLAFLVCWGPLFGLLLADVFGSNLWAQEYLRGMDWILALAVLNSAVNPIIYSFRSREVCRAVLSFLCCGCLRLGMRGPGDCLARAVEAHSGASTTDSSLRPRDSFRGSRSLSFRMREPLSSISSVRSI
# [12] = growth suppression of beta-catenin-knockout colon cells, dose response, cell-based, HCT116, human colon tumor (AID 1045); type: functional;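 note: HCT116 colon tumor cells with beta catenin knocked out; cells exposed to compound for 60 hours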
# [13] = biological target: T2, Sphingosine 1-phosphate receptor 4; test: Fluorescence dose response cell-based high throughput screening assay for antagonists of the Sphingosine 1-Phosphate Receptor 4 (S1P4). [Related pubchem assays: 1524 (Confirmation in triplicates.), 1510 (Primary screen.)]; type: functional
# [14] = biological target: Sphingosine 1-phosphate receptor 1 (Homo sapiens, UniProt P21453); type: functional;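 note: Tango beta-arrestin reporter U2OS cells stimulated with S1P near its EC80; inhibitor potency meaning antagonism of receptor activation by the natural agonist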
# [15] = THP-1 cell cytotoxicity, dose response, cytotoxicity control for non-replicating M. tuberculosis project (AID 489025); type: functional
# [16] = Vero E6 cell cytotoxicity, dose response, cytotoxicity control for non-replicating M. tuberculosis project, secondary assay (AID 492998); type: functional, VeroE6; conditions: Vero C1008
# cells = type: functional
# [17] = system: Streptococcus sp. 'group A'; test: growth inhibition of control SK(-) GAS strain, dose response, counter-screen for streptokinase expression inhibitor project, luminescence, kanamycin, BacTiterGlo, confirmation (AID 1900); type: functional, organism-based
# Streptokinase A = biological target: T3, Streptokinase A (Streptococcus pyogenes serotype M1, UniProt P10520); test: S. pyogenes streptokinase expression inhibitors, potency, dose response, plasminogen activation absorbance, OD405 (AID 1914); type: functional, Streptococcus pyogenes M1 GAS;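 note: secreted streptokinase activity via plasminogen activation per viability signal from cell pellet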
# T3 sequence (P10520 whole entry): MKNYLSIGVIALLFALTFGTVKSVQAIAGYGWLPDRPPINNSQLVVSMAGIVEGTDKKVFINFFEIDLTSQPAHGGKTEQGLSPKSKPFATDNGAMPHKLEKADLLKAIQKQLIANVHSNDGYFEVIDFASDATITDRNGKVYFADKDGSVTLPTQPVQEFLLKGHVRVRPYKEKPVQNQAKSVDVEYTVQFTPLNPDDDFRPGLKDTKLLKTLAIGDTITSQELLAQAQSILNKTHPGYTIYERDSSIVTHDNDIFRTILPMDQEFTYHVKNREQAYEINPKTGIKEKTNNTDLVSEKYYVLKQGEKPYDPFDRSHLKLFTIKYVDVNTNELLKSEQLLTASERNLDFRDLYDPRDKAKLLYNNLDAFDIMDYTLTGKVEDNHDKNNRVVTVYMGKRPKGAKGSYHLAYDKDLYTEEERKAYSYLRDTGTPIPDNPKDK
# [18] = inhibitors of Bluetongue virus cytopathic effect, confirmation, arbovirus, BSR cells (AID 1250); type: functional;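 note: protection from viral cytopathic effect measured as cell viability by ATP luminescence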
# Streptococcus = test: Group A Streptococcus viability loss, dose response, counter-screen for streptokinase expression inhibitor project, luminescence, BacTiterGlo (AID 1915); type: functional, organism-based;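 note: potency for reduction of bacterial viability or growth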
# fMet-Leu-Phe receptor = biological target: T4, fMet-Leu-Phe receptor (Homo sapiens, UniProt P21462); test: FPR ligands, dose response (AID 519); type: functional
# T4 sequence (P21462 whole entry): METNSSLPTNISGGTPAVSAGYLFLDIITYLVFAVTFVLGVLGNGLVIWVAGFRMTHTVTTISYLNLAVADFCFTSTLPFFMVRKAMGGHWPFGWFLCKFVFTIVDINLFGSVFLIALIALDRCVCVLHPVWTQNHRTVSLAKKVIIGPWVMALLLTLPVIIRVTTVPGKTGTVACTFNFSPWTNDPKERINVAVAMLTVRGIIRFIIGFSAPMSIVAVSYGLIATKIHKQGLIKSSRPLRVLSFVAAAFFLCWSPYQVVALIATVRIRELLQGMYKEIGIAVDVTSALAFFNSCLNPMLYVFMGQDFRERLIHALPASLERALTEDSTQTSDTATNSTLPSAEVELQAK
# Oxytocin receptor = Oxytocin receptor (Homo sapiens, UniProt P30559); test: Counterscreen for vasopressin 1 receptor (V1R) agonists: Fluorescence-based cell-based high throughput dose response assay for agonists of the Oxytocin Receptor (OXTR). [Related pubchem assays: 2435 (Primary screen (OXTR agonists in singlicate)), 434964 (Confirmation screen (V1R agonists in triplicate)), 434969 (Counterscreen (OXTR agonists in …; type: functional
# Vasopressin V1a receptor = Vasopressin V1a receptor (Homo sapiens, UniProt P37288); test: Fluorescence-based cell-based high throughput dose response screening assay for agonists of the vasopressin 1 receptor (V1R).; type: functional
# Troponin, cardiac muscle = Troponin, cardiac muscle (Homo sapiens, UniProt P19429+P45379+P63316); test: Fluorescence-based biochemical high throughput dose response assay for activators of the calcium sensitivity of cardiac Regulated Thin Filaments (RTF). [Related pubchem assays (depositor defined):AID493008, AID493018, AID504382, AID504383]; type: protein-complex assay
# Bcl-2-like protein 10 = Bcl-2-like protein 10 (Homo sapiens, UniProt Q9HD36); test: Biochemical TR3 FP assay of Bcl-B inhibitor potency, EC50 (AID 1243); type: functional
# [19] = biological target: T5, Heat shock factor protein 1 (Mus musculus, UniProt P38532); test: inhibition of MG132-induced HSE-luciferase signal, confirmation, cell-based, NIH3T3, luminescence, dose retest (AID 2382); type: functional;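 note: NIH3T3 fibroblasts with HSF1-driven luciferase reporter stressed by proteasome inhibitor MG132; luminescence from HSF1-driven luciferase expression after 8 hours of MG132 stress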
# T5 sequence (P38532 whole entry): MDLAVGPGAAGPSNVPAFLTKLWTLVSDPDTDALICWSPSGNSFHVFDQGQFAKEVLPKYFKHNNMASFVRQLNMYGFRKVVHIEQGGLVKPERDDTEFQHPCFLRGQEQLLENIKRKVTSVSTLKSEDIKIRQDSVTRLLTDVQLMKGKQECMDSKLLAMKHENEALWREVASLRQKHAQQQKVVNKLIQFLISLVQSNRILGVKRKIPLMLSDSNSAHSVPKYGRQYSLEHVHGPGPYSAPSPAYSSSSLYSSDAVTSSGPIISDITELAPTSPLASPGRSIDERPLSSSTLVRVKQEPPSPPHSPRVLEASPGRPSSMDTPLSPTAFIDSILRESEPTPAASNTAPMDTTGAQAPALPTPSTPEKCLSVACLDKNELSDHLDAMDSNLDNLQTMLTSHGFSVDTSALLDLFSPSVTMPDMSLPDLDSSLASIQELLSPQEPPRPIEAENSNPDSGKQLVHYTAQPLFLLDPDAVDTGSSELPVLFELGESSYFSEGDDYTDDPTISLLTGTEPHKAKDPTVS
# [20] = biological target: T6, Mannose-6-phosphate isomerase (Homo sapiens, UniProt P34949); test: inhibitors of human PMI, primary screen, biochemical, fluorescence intensity, coupled assay (AID 1209)
# T6 sequence (P34949 whole entry): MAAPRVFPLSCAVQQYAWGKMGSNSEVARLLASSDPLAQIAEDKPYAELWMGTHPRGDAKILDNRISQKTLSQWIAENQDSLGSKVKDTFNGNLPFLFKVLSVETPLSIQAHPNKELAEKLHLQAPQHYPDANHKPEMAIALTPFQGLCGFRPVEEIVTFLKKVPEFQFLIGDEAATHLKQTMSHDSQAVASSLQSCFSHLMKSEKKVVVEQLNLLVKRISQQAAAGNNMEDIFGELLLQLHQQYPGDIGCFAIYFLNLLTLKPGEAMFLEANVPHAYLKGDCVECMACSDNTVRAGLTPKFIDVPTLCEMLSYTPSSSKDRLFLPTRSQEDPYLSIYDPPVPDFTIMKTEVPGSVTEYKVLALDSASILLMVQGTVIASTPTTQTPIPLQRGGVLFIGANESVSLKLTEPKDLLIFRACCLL
# Sequence of Epstein-Barr nuclear antigen 1 (P03211 whole entry): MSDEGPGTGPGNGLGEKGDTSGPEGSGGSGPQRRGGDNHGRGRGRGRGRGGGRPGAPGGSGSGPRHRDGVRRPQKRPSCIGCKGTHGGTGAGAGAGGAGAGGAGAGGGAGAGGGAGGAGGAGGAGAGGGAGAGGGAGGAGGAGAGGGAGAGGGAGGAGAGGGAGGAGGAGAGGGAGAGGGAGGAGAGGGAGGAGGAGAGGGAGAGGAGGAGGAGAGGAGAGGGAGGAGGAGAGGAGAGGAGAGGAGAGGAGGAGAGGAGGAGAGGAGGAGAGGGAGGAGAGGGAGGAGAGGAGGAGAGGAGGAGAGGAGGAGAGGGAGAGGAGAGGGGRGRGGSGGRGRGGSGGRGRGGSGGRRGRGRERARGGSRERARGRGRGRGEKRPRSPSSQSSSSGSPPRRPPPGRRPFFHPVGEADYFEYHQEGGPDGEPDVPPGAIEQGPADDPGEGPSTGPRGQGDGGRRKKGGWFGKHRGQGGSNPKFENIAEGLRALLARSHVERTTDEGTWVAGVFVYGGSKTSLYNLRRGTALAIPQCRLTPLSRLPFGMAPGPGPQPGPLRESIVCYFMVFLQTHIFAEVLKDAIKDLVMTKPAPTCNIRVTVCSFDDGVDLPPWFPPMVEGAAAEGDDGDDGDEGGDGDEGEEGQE
# Sequence of Protein-tyrosine kinase 2-beta (Q14289 whole entry, the tested form may be a part): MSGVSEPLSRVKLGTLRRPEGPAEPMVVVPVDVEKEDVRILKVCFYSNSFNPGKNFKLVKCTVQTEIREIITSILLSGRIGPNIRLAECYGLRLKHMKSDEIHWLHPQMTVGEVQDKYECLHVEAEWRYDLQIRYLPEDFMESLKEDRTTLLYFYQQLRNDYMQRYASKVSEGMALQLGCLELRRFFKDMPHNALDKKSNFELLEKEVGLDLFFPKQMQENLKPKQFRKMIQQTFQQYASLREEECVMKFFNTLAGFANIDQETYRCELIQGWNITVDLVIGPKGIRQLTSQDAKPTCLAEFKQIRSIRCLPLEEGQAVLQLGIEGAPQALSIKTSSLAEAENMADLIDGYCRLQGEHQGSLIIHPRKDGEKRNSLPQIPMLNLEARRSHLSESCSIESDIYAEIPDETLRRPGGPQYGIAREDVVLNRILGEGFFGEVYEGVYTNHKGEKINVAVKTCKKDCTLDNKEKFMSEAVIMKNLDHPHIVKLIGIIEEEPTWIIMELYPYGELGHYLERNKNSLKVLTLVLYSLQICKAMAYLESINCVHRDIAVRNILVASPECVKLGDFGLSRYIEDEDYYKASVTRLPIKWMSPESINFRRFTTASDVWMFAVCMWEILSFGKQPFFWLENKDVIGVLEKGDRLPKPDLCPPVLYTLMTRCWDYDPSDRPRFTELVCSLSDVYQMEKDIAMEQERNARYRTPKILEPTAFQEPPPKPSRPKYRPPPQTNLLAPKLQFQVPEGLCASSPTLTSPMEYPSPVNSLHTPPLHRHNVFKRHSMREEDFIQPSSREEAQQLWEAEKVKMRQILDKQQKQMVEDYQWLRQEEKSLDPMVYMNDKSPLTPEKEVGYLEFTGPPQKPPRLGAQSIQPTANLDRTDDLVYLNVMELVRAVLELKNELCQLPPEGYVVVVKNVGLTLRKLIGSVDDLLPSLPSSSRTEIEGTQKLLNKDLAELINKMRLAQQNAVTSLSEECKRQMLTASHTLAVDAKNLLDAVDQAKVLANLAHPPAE
# Sequence of DNA dC->dU-editing enzyme APOBEC-3A (P31941 whole entry): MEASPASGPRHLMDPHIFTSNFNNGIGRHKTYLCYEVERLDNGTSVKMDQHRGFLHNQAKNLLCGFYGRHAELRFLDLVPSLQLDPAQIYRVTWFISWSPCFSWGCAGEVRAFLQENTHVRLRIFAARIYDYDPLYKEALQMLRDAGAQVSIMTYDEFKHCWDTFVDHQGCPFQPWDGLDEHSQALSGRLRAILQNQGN
# Sequence of Lytic switch protein BZLF1 (P03206 whole entry): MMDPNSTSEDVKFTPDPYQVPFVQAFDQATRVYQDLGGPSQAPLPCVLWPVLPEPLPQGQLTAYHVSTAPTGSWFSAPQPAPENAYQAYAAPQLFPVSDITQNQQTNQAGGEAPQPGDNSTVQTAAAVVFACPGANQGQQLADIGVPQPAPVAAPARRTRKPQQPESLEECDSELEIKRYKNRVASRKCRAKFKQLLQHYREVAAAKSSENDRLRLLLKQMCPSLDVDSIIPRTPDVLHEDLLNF
# Sequence of Vasopressin V1a receptor (P37288 whole entry): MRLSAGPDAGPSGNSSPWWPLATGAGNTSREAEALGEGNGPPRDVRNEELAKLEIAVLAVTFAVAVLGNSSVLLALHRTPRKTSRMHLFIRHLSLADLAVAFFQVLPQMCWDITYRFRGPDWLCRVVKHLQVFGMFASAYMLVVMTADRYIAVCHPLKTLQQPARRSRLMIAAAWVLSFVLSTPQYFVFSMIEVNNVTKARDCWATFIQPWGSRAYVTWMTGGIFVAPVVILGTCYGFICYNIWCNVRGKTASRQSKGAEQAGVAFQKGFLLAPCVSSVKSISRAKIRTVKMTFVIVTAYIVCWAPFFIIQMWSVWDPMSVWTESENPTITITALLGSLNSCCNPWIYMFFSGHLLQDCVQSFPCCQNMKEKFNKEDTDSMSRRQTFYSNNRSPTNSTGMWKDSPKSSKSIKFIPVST
# Sequence of Oxytocin receptor (P30559 whole entry): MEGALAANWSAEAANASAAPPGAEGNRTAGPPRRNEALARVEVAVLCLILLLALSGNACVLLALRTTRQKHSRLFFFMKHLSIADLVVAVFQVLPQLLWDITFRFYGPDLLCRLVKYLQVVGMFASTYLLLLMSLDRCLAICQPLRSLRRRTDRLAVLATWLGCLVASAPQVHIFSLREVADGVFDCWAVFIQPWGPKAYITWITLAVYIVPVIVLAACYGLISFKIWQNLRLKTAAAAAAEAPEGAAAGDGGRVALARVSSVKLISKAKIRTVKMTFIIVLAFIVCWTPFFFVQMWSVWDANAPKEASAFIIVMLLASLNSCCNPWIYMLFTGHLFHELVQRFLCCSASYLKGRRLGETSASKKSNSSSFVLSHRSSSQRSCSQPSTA
# Sequence of Bcl-2-like protein 10 (Q9HD36 whole entry): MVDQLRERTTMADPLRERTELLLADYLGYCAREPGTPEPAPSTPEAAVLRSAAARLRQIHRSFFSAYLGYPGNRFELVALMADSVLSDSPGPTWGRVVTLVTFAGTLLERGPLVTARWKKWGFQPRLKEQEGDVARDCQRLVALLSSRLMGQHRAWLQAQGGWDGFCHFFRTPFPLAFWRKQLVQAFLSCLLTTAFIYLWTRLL
# Sequence of DNA dC->dU-editing enzyme APOBEC-3G (Q9HC16 whole entry): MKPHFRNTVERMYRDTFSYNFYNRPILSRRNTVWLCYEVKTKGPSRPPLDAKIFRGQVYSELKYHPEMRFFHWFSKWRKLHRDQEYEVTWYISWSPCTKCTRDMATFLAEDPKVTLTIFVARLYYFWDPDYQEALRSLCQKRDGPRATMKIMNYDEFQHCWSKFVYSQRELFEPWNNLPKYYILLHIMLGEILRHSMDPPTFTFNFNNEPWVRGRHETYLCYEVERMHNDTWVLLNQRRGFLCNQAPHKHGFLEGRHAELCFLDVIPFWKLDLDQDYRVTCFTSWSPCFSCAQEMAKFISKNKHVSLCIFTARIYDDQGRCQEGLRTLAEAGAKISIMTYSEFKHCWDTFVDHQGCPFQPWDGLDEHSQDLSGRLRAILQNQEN
# Sequence of Sphingosine 1-phosphate receptor 1 (P21453 whole entry): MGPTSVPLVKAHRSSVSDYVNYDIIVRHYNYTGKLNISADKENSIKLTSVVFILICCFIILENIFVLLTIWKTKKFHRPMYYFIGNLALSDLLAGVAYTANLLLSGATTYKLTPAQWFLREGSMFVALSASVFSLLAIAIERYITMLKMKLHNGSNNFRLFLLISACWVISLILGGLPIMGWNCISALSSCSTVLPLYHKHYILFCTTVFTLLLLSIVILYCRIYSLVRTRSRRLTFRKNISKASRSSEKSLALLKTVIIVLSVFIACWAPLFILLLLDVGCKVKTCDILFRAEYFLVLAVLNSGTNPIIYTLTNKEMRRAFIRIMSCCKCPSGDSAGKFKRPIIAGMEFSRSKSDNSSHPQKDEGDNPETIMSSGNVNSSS
smiles,measurement,setting,value
O=c1cc(-c2ccco2)oc2c1ccc1ccccc12,IC50,[1],> 69.5 µM (not active)
same,EC50,Estrogen receptor,12.4 µM (active)
CN1CCN(c2ccc(-c3cccc(NC(=O)COc4ccc(Cl)cc4Cl)c3)nn2)CC1,IC50,[2],> 148 µM (not active)
same,IC50,[3],> 111 µM (not active)
COc1ccc(N=Nc2[nH]c3ccc(C)cc3c2O)cc1,CC50,HeLa,> 33 µM (not active)
same,IC50,[4],8.35 µM (active)
same,IC50,[5],7.98 µM (active)
CCCS(=O)(=O)c1nnnn1-c1cccc(OC)c1,EC50,[6],5.1 µM (inconclusive)
same,EC50,[7],2.49 µM (active)
same,EC50,[8],6.57 µM (active)
same,EC50,[9],6.25 µM (active)
same,EC50,[10],7.57 µM (active)
same,IC50,[11],4.51 µM (not active)
same,EC50,[12],6.66 µM (active)
same,IC50,[13],0.951 µM (active)
same,IC50,[14],20.1 µM (not active)
same,CC50,[15],17.8 µM (active)
same,CC50,[16],11.7 µM (active)
same,IC50,cells,5.35 µM (active)
CCOC(=O)c1sc(=S)n2c1[nH]c(=O)c1ccc(C(=O)OC)cc12,EC50,[17],6.34 µM (active)
same,EC50,Streptokinase A,> 150 µM (not active)
same,IC50,[18],53 µM (active)
same,EC50,Streptococcus,11.5 µM (active)
same,Ki,fMet-Leu-Phe receptor,> 66.7 µM (inactive)
CCSC1=N/C(=C\C=C2/Oc3ccccc3N2CC)C(=O)S1,EC50,Oxytocin receptor,> 29.9 µM (not active)
same,EC50,Vasopressin V1a receptor,> 29.9 µM (not active)
same,EC50,"Troponin, cardiac muscle",4.53 µM (active)
O=C(O)Cc1c[nH]c2ccc(O)cc12,EC50,Bcl-2-like protein 10,7.88 µM (active)
Cc1nn(-c2ccccc2)c(S)c1/C=N/c1cccc([N+](=O)[O-])c1,EC50,[19],> 195 µM (not active)
same,IC50,[20],19.1 µM (active)
